# According to BindingDB's records for doi:10.1101/2020.12.16.422677 (Fraunhofer Institute for Translational Medicine and …, 2020):
# Target: Replicase polyprotein 1ab (Severe acute respiratory syndrome coronavirus 2, UniProt P0DTD1)
# Assay: Hit profiling assay with DTT
row,Structure (SMILES),IC50 [nM]
1,CN1CCN(C(c2ccc(C(F)(F)F)cc2)c2ccc3cccnc3c2O)CC1 (configuration not stated),1340
2,"Cn1sc(=O)n(Cc2ccccc2)c1=O [4-Benzyl-2-methyl-1,2,4-thiadiazolidine-3,5-dione]",140
3,O=C1C=Cc2cc(Br)ccc2C1=O [Bonaphthone],90
4,CCOC(=O)Cc1ccc(-c2ccccc2)cc1 [Felbinac ethyl],80
5,Cc1c(-c2cnccn2)ssc1=S [OLTIPRAZ],110
6,N#CSc1cc(SC#N)c(N)nc1N [PR-619],4410
7,"COC(=O)CC[C@H](NC(=O)[C@H](CC(=O)OC)NC(=O)OCc1ccccc1)C(=O)N[C@H](C(=O)N[C@@H](CC(=O)OC)C(=O)CF)C(C)C [US9345789, Z-DEVD-FMK]",10
